Experimental data published in patent US20260158009A1 (GENZYME CORPORATION, priority 2023, published 2026).

What was measured:
[1] = biological target: T1, hRIPK1 (aa 1-375) fusion protein (Homo sapiens, UniProt Q13546); test: ADP-Glo kinase assay: catalytic activity of RIPK1 (autophosphorylation, conversion of ATP to ADP); format: biochemical
T1 construct: hRIPK1 (aa 1-375) fusion protein
T1 sequence (Q13546 1-375): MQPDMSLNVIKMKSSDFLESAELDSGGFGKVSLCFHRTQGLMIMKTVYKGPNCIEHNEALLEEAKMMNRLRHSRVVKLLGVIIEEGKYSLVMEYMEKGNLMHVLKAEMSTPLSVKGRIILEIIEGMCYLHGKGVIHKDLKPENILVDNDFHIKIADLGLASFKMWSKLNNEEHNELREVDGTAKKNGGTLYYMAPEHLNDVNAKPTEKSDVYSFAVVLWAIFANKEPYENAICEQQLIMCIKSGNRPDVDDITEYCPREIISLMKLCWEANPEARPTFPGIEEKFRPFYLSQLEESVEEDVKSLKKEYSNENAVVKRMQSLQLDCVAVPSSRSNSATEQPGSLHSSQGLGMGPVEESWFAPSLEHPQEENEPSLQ
In short: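 The readout was ADP-Glo luminescence after a 240 min rt autophosphorylation reaction with 50 μM ATP, following 30 min preincubation of 3.6 μg/ml hRIPK1 (aa 1-375) fusion with compound at 33300-1.69 nM final in 1% DMSO. Values came from Levenberg-Marquardt nonlinear fits.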

[2] = system: U937 cells; test: Cellular assay in U937 cells: activity of RIPK1 inhibitors on TNFα/zVAD.fmk-induced cell death (necroptosis), CellTiter 96 AQueous (MTS) readout; format: cell-based; settings: Homo sapiens, U-937
In short: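 Necroptosis was measured by viable-cell MTS reduction (4 h, absorbance 490 nm) after overnight (18–24 h) 37° C culture. Cell suspensions of U937 cells carried TNFα (100 ng/ml) plus zVAD.fmk (50 μM) before compound was added. A 10-point curve (10 μM–0.26 nM or 1 μM–0.07 nM) was run in duplicate, normalised to the control lacking TNFα/zVAD.fmk.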

SMILES	IC50 [1] [nM]	IC50 [2] [nM]
COc1cncc([C@@H]2CCON2C(=O)[C@H]2CC[C@H](Cn3ccc4ccc(C#N)cc43)CC2)n1 [compound 241, trans-1-[[4-[(3S)-3-(6-methoxypyrazin-2-yl)isoxazolidine-2-carbonyl]cyclohexyl]methyl]indole-6-carbonitrile]	148	28
N#Cc1cc(C[C@H]2CC[C@H](C(=O)N3OCC[C@H]3c3ccc(F)cc3)CC2)ccc1F [compound 242, trans-2-fluoro-5-[[4-[(3S)-3-(4-fluorophenyl)isoxazolidine-2-carbonyl]cyclohexyl]methyl]benzonitrile]	21	16
N#Cc1cc(C[C@H]2CC[C@H](C(=O)N3OCC[C@H]3c3cnccn3)CC2)ccc1F [compound 243, trans-2-fluoro-5-[[4-[(3S)-3-pyrazin-2-ylisoxazolidine-2-carbonyl]cyclohexyl]methyl]benzonitrile]	13	3
N#Cc1cc(F)cc([C@@H]2CCON2C(=O)[C@H]2CC[C@H](Cc3cnccn3)CC2)c1 [compound 245, trans-3-fluoro-5-[(3S)-2-[4-(pyrazin-2-ylmethyl)cyclohexanecarbonyl]isoxazolidin-3-yl]benzonitrile]	17	16
O=C([C@H]1CC[C@H](Cc2cnccn2)CC1)N1OCC[C@H]1c1cnccn1 [compound 246, trans-[(3S)-3-pyrazin-2-ylisoxazolidin-2-yl]-[4-(pyrazin-2-ylmethyl)cyclohexyl]methanone]	150	918
N#Cc1cc(F)cc([C@@H]2CCON2C(=O)[C@H]2CC[C@H](Cc3cncnc3)CC2)c1 [compound 247, trans-3-fluoro-5-[(3S)-2-[4-(pyrimidin-5-ylmethyl)cyclohexanecarbonyl]isoxazolidin-3-yl]benzonitrile]	22	136
O=C([C@H]1CC[C@H](Cc2cncnc2)CC1)N1OCC[C@H]1c1cnccn1 [compound 248, trans-[(3S)-3-pyrazin-2-ylisoxazolidin-2-yl]-[4-(pyrimidin-5-ylmethyl)cyclohexyl]methanone]	73	666
Cc1cc(C[C@H]2CC[C@H](C(=O)N3OCC[C@H]3c3cc(F)cc(C#N)c3)CC2)cn2ncnc12 [compound 249, trans-3-fluoro-5-[(3S)-2-[4-[(8-methyl-[1,2,4]triazolo[1,5-a]pyridin-6-yl)methyl]cyclohexanecarbonyl]-1,2-oxazolidin-3-yl]benzonitrile]	18	5
Cc1cc(C[C@H]2CC[C@H](C(=O)N3OCC[C@H]3c3cnccn3)CC2)cn2ncnc12 [compound 250, trans-[4-[(8-methyl-[1,2,4]triazolo[1,5-a]pyridin-6-yl)methyl]cyclohexyl]-[(3S)-3-pyrazin-2-yl-1,2-oxazolidin-2-yl]methanone]	16	17
NC(=O)c1ccc2c(ccn2C[C@H]2CC[C@H](C(=O)N3OCC[C@H]3c3cnccn3)CC2)c1 [compound 251, trans-1-[[4-[(3S)-3-pyrazin-2-ylisoxazolidine-2-carbonyl]cyclohexyl]methyl]indole-5-carboxamide]	8	17
N#Cc1cncc([C@@H]2CCON2C(=O)[C@H]2CC[C@H](Cn3ccc4cc(C(N)=O)ccc43)CC2)c1 [compound 252, trans-1-[[4-[(3S)-3-(5-cyano-3-pyridyl)isoxazolidine-2-carbonyl]cyclohexyl]methyl]indole-5-carboxamide]	17	54
COc1cncc([C@@H]2CCON2C(=O)[C@H]2CC[C@H](Cn3ccc4cc(C(N)=O)ccc43)CC2)n1 [compound 253, trans-1-[[4-[(3S)-3-(6-methoxypyrazin-2-yl)isoxazolidine-2-carbonyl]cyclohexyl]methyl]indole-5-carboxamide]	18	175
Cc1nc([C@@H]2CCON2C(=O)[C@H]2CC[C@H](Cn3ccc4cc(C(N)=O)ccc43)CC2)cs1 [compound 254, trans-1-[[4-[(3S)-3-(2-methylthiazol-4-yl)isoxazolidine-2-carbonyl]cyclohexyl]methyl]indole-5-carboxamide]	20	96
NC(=O)c1ccc2c(ccn2C[C@H]2CC[C@H](C(=O)N3OCC[C@H]3c3ccccn3)CC2)c1 [compound 255, trans-1-[[4-[(3S)-3-(2-pyridyl)isoxazolidine-2-carbonyl]cyclohexyl]methyl]indole-5-carboxamide]	25	521
N#Cc1cncc([C@@H]2CCON2C(=O)[C@H]2CC[C@H](Cc3cc(F)cc(CO)c3)CC2)c1 [compound 257, trans-5-[(3S)-2-[4-[[3-fluoro-5-(hydroxymethyl)phenyl]methyl]cyclohexanecarbonyl]isoxazolidin-3-yl]pyridine-3-carbonitrile]	10	2
O=C([C@H]1CC[C@H](Cc2cc(F)cc(CO)c2)CC1)N1OCC[C@H]1c1cnccn1 [compound 259, trans-[4-[[3-fluoro-5-(hydroxymethyl)phenyl]methyl]cyclohexyl]-[(3S)-3-pyrazin-2-ylisoxazolidin-2-yl]methanone]	8	2
Cc1nc2ccc(C[C@H]3CC[C@H](C(=O)N4OCC[C@H]4c4ccc(F)cc4)CC3)cn2n1 [compound 260, trans-[(3S)-3-(4-fluorophenyl)isoxazolidin-2-yl]-[4-[(2-methyl-[1,2,4]triazolo[1,5-a]pyridin-6-yl)methyl]cyclohexyl]methanone]	32	25
Cc1nc2ccc(C[C@H]3CC[C@H](C(=O)N4OCC[C@H]4c4ccc(F)c(F)c4)CC3)cn2n1 [compound 261, trans-[(3S)-3-(3,4-difluorophenyl)isoxazolidin-2-yl]-[4-[(2-methyl-[1,2,4]triazolo[1,5-a]pyridin-6-yl)methyl]cyclohexyl]methanone]	23	17
Cc1nc2ccc(C[C@H]3CC[C@H](C(=O)N4OCC[C@H]4c4cncc(C#N)c4)CC3)cn2n1 [compound 262, trans-5-[(3S)-2-[4-[(2-methyl-[1,2,4]triazolo[1,5-a]pyridin-6-yl)methyl]cyclohexanecarbonyl]isoxazolidin-3-yl]pyridine-3-carbonitrile]	34	67
Cc1ncc(C[C@H]2CC[C@H](C(=O)N3OCC[C@H]3c3cc(F)cc(C#N)c3)CC2)cn1 [compound 263, trans-3-fluoro-5-[(3S)-2-[4-[(2-methylpyrimidin-5-yl)methyl]cyclohexanecarbonyl]isoxazolidin-3-yl]benzonitrile]	41	59
Cc1ncc(C[C@H]2CC[C@H](C(=O)N3OCC[C@H]3c3cc(F)cc(F)c3)CC2)cn1 [compound 264, trans-[(3S)-3-(3,5-difluorophenyl)isoxazolidin-2-yl]-[4-[(2-methylpyrimidin-5-yl)methyl]cyclohexyl]methanone]	14	16
O=C([C@H]1CC[C@H](Cc2ccc(CO)c(F)c2)CC1)N1OCC[C@H]1c1cc(F)cc(F)c1 [compound 265, trans-[(3S)-3-(3,5-difluorophenyl)isoxazolidin-2-yl]-[4-[[3-fluoro-4-(hydroxymethyl)phenyl]methyl]cyclohexyl]methanone]	8	1
